The values below come from patent US5198568A, “Compounds useful in enzymatic resolution systems and their preparation” (priority 1991, dated 1993).

Each structure is given as a SMILES string. Where a name gives a salt, the structure may show the parent alone.

What all share (type): biochemical
Series [1] deals with Protease XXIII from Aspergillus oryzae (Sigma, Enzyme A). Nature of the series: pH-stat rate of hydrolysis of single enantiomers, Enzyme A. To be noted: 50 mM single enantiomer, 50 mM buffer pH 7.6, enzyme A. On the procedure: 15 ml of a solution containing one enantiomer of the ester at a concentration of 50 mM, and Na3 PO4 buffer at 50 mM and pH 7.6 was observed using a pH stat device. 0.1 ml of a 50 mg/ml solution of enzyme A, made up from
Rates of hydrolysis of both enantiomers of the ester compound were
determined for the enzyme. The ratio of the rates of hydrolysis for the
two enantiomers for the two enantiomers with respect to the enzyme
indicate the stereospecificity of that enzyme's hydrolytic action on the […]

Series [2] relates to Protease XIV from Streptomyces griseus (Sigma, Enzyme I). The series can be described thus: pH-stat rate of hydrolysis of single enantiomers, Enzyme I. To be noted: 50 mM single enantiomer, 50 mM buffer pH 7.6, enzyme I. The protocol: (§1) 15 ml of a solution containing one enantiomer of the ester at a concentration of 50 mM, and Na3 PO4 buffer at 50 mM and pH 7.6 was observed using a pH stat device. 0.1 ml of a 50 mg/ml solution of protease enzyme I, made up from the commercially available preparation in 50 mM Na3 PO4 buffer at pH 7.6, were added. Rates of hydrolysis of both enantiomers of the ester compound were determined for the protease enzyme. The ratio of the rates of hydrolysis for the two enantiomers for the two enantiomers with respect to the enzyme indicate the stereospecificity of that enzyme's hydrolytic action on the racemic mixture of the ester. No evidence for the hydrolysis of the acetylthio ester portion of the substrate molecule was found.

For series [3], the target named is T1, Protease XXVII, Nagarse (Sigma, Enzyme D) (Bacillus amyloliquefaciens, UniProt P00782).
T1 construct: purchased Sigma
T1 sequence (P00782 108-382): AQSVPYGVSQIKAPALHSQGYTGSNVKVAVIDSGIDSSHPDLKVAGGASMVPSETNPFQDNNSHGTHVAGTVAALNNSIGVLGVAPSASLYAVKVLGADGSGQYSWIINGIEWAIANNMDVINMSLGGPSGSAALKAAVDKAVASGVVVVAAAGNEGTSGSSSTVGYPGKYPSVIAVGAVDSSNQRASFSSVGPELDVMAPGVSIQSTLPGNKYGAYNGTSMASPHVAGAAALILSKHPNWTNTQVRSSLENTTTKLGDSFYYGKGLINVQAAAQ
Nature of the series: pH-stat rate of hydrolysis of single enantiomers, Enzyme D. As to conditions: 50 mM single enantiomer, 50 mM buffer pH 7.6, enzyme D. The protocol: as §1, with “of” for “of protease”, “D,” for “I,”, “the” for “the protease”, “thioacetyl” for “acetylthio”

Series [4] relates to Protease XXIV, bacterial protease (Sigma, Enzyme J). Nature of the series: pH-stat rate of hydrolysis of single enantiomers, Enzyme J. To be noted: 50 mM single enantiomer, 50 mM buffer pH 7.6, enzyme J. On the procedure: as §1, with “Enzyme J,” for “protease enzyme I,”, “the” for “the protease”
In series [5] the target is T2, Protease VIII, Subtilopeptidase A (subtilisin Carlsberg) (Sigma, Enzyme B) (Bacillus licheniformis, UniProt P00780).
T2 sequence (P00780 106-379): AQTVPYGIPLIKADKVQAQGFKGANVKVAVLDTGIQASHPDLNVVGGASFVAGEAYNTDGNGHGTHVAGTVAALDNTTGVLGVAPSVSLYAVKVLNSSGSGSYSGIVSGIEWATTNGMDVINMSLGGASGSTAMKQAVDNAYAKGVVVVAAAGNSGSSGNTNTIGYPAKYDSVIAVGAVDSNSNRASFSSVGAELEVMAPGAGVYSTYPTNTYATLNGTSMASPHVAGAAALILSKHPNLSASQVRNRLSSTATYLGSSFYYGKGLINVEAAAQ
Nature of the series: pH-stat rate of hydrolysis of single enantiomers, Enzyme B. To be noted: 50 mM single enantiomer, 50 mM buffer pH 7.6, enzyme B. The protocol:
15 ml of a solution containing one enantiomer of the ester at a concentration of 50 mM, and Na3 PO4 buffer at 50 mM and pH 7.6 wa observed using pH stat device 0.1 ml of a 50 mg/ml solution of enzyme B, made up from
the commercially available preparation in 50 mM Na3 PO4 buffer at pH 7.6, were added. Rates of hydrolysis of both enantiomers of the ester compound were determined for the enzyme. The ratio of the rates of hydrolysis for the two enantiomers for the two enantiomers with respect to the enzyme indicate the stereospecificity of that enzyme's hydrolytic action on the racemic mixture of the ester. No evidence for the hydrolysis of the acetylthio ester portion of the substrate molecule was found.

Series [6] deals with protease Prozyme 6 from Aspergillus oryzae (Amano, Enzyme F). The series can be described thus: Homogeneous aqueous enzymatic resolution (ester hydrolysis), Enzyme F. On the procedure:
(§2) The enzymatic reaction mixtures were capped and briefly shaken until all the substrate had dissolved, and the enzyme had completely dissolved or dispersed. […] Evaporation of the ether left a white solid. Rotations were measured at c=1 in CHCl3.
as §2
The reaction was started by adding 100 mg of the protease (F) from the fungus Aspergillus oryzae (from Amano Enzyme Corporation, Prozyme 6, 60,000 units per mg of solid).
After 20 hours at room temperature, the solution was acidified to pH 2 and extracted with 3 volumes of diethyl ether. The aqueous phase was saved for subsequent workup. The ether phase was washed with two volumes of distilled water and then one volume of saturated sodium chloride, and then it was dried over MgSO4 and subsequently evaporated to dryness. The resolved ibuprofen product recovered was 930 mg of white powder, indicating 45% conversion of racemic ester to acid. The optical rotation was -0.580° (measured at c=1 in ethanol), indicating the R isomer of ibuprofen.
35 mg of protease Enzyme F, as the commercial preparation Prozyme 6, were added to the aqueous solution. The reaction flask was capped, and briefly shaken until all the enzyme had dissolved or dispersed. […] The resulting mixture was diluted with one volume of water and was extracted with diethyl ether (2 times 200 ml). The ether layers were combined and backwashed with water (2 times 200 ml), saturated NaCl solution (200 ml), and then dried over MgSO4.
In this control run, a 0.5M ester solution of (1) was prepared in 325 ml of 0.1M sodium phosphate buffer (pH 7.0). The reaction was started by adding 3 gm of the above enzyme (F). The pH was controlled at 7.0 with 8.22M sodium hydroxide. After 6.49 hours at 30 ° C., 6.63 ml of hydroxide were added, indicating 37.7% conversion. The reaction was allowed to continue overnight and, after 23.1 hours, a total of 7.2 ml of sodium hydroxide were added, indicating 40.9% conversion.

For series [7] the test system is unchanged. Nature of the series: Asymmetric hydrolysis in an extractive dispersion reactor, Enzyme F. To be noted: 100 mg Prozyme 6, 3.38 gm ester in 100 ml buffer pH 7.0 plus 100 ml hexane, room temperature, 3.5 hours. The protocol: In this Example, the hexane was dispersed in the reaction vessel to extract the inhibitory ibuprofen acid as it is formed. The reaction was started by adding 100 mg of the protease from the fungus Aspergillus oryzae (from Amano Enzyme Corporation, Prozyme 6, 60,000 units per mg of solid).
After 3.5 hours at room temperature with vigorous stirring, the solution was acidified to pH 2 and extracted with 2 volumes of hexane. The aqueous phase was saved for subsequent workup. The hexane phase was dried over MgSO4 and evaporated to dryness. The resolved ibuprofen product so recovered consisted of 490 mg of white powder, indicating 24% conversion. The optical rotation was -0.568° (c=1.015 in ethanol), indicating the R isomer of ibuprofen.

Series [8] has as its system lipase from Candida cylindracea (Meito Sangyo, Lipase OF). Nature of the series: Activity of the carrier lipase against the ester.
Series [9] has as its system Protease XXIII from Aspergillus oryzae (Sigma, Enzyme A). Nature of the series: Homogeneous aqueous enzymatic resolution (ester hydrolysis), Enzyme A. As to conditions: acid product; 100 mg enzyme A, pH 7.0, 20-22 C, 20 hours. On the procedure: No further purification was performed.
The test system of series [10] is protease Prozyme 6 from Aspergillus oryzae (Amano, Enzyme F). Nature of the series: Asymmetric hydrolysis in an extractive membrane reactor, enzyme not associated with the membrane, Enzyme F. The text has this: Hexane was recirculated through the lumen or bores of the fibers in the module. The aqueous solution in the shell contained the enzyme and ester. While the cellulose membrane is water-wet, the membrane rejects the macromolecular enzyme (molecular weight 18,000). Therefore, the enzyme resides solely in the aqueous ester solution. As the ibuprofen acid was formed, it was extracted into the hexane phase, thereby reducing the effect of product (ibuprofen acid) inhibition on the activity of the enzyme.
The aqueous phase used to extract the ibuprofen acid from hexane in this module contained 0.1M sodium carbonate buffer at pH 9.5. The pH was maintained at this value by the addition of 8.22M sodium hydroxide as required.
In this Example, the aqueous stream in the extractive membrane reactor module consisted of a solution of the sulfomethyl ester of ibuprofen (1), which solution was prepared by adding 32.51 gm of the sodium salt of the ester (at 75% chemical purity) to 1000 ml of 0.1M sodium phosphate buffer (pH 7.0). The reaction was started by adding 2 gm of the protease (F) from the fungus Aspergillus oryzae (from Amano Enzyme Corporation, Prozyme 6, 60,000 units per gm of solid). […]
The optical rotation of the recovered product was measured by polarimetry; the experimentally determined value for [α]D was -56.7° (measured at c=0.815 in ethanol), thereby indicating the R isomer of ibuprofen. The sample was also analyzed by chiral HPLC using a Bakerbond DNBPG (covalent) column (4.6×250 mm), with 96.9% hexane:3.0% 2-propanol:0.1% acetonitrile as the mobile phase at 2 ml/min after derivatization with naphthalene amine. […] The optical purity or enantiomeric excess of this R ibuprofen sample as determined by this chiral HPLC procedure was 99.3% (i.e., enantiomeric excess of R ibuprofen).
The aqueous phase at pH 7.0 (as recovered from the extractive membrane reactor) was mixed with 280 gm of sodium chloride to salt out the remaining unconverted ester. […] The optical rotation (as measured by polarimetry) was [α]D =+57.4° (c=1.29 in ethanol), indicating the S isomer of ibuprofen. […]

The target of series [11] is T1, Protease XXVII, Nagarse (Sigma, Enzyme D). The series can be described thus: Homogeneous aqueous enzymatic resolution (ester hydrolysis), Enzyme D. As to conditions: 100 mg enzyme D, 10 mmol ester in 100 ml 0.2 M phosphate buffer pH 7.0, 20-22 C, 20 hours.
Where [12] appears, read: chiral HPLC, after 50% conversion.

With `CC(=O)SC[C@@H](C)C(=O)OCS(=O)(=O)O` [Compound 14, Potassium Salt of the Sulfomethyl Ester of D-(-)-S-3-Acetylthio-2-methylpropanoic Acid], the Rate of hydrolysis in series [1] is 5.3 umols/hr/mg; in [2], 63 umols/hr/mg; in series [3], 27 umols/hr/mg; in series [4], 61 umols/hr/mg; in [5] it was 65 umols/hr/mg.
As to `CC(C)Cc1ccc(C(C)C(=O)OCS(=O)(=O)O)cc1` (racemic) [Compound 1, Sodium Salt of 4-Sulfomethyl Ester of 2-(4-Isobutylphenyl)propanoic Acid], the “conversion of racemic ester to acid” value in series [6] (100 mg Prozyme 6 (F), 3.22 gm ester in 100 ml 0.2M sodium phosphate pH 7.0, room temperature, 20 hours) is reported as 45%. In addition, the conversion in [6] (0.5M ester, 3 gm enzyme F, pH 7.0, 30 C, after 23.1 hours, 500000 µM) stood at 40.9%; in [7], 24%. Moreover, the “activity of the lipase against the ester” value in series [8] is “inactive”. Moreover, the “% e.e.” value in series [9] is over 99%. Also, the “conversion of the racemic ester to ibuprofen acid” value in [10] (2 gm Prozyme 6, 32.51 gm ester in 1000 ml 0.1M sodium phosphate pH 7.0, hexane extractant, room temperature, 6.3 hours) is 50%. For the same compound, the “enantiomeric excess of R ibuprofen (acid product)” value in series [10] (setting [12]) came to 99.3%. Also, in series [10] (setting [12]), the “enantiomeric excess of S ibuprofen (from unconverted ester hydrolyzed at pH 12)” value turned out to be 98.9%. In addition, the “% CONVERSION” value in [11] turned out to be 34.0%.
For the compound `CC(=O)SC[C@H](C)C(=O)OCS(=O)(=O)O` [Compound 15, Potassium Salt of the Sulfomethyl Ester of L-(+)-S-3-Acetylthio-2-methylpropanoic Acid], the Rate of hydrolysis in series [1] stood at 12 umols/hr/mg; in [2], 105 umols/hr/mg; in series [3] it was 29 umols/hr/mg; in series [4], 65 umols/hr/mg; in [5], 135 umols/hr/mg.
